# Source: patent US11987586B1 (TAKEDA PHARMACEUTICAL COMPANY LIMITED, priority 2022, dated 2024)
# Target: T1, human OX2 receptor (Homo sapiens, UniProt O43614)
# T1 construct: expressed in transfected cells
# T1 sequence (O43614 1-444): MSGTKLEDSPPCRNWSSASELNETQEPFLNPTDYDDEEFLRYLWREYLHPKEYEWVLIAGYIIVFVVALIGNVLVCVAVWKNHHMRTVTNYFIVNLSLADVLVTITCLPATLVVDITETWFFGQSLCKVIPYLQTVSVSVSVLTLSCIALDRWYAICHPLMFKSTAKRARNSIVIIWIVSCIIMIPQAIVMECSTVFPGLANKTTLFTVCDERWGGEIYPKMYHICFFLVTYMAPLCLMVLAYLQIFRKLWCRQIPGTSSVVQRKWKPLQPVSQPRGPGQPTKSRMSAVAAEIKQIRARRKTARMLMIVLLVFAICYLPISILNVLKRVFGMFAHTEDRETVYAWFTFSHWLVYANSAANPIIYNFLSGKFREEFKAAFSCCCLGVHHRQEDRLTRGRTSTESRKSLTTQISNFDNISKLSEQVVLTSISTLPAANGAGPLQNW
# Experiment: Measurement of orexin type 2 receptor agonist activity (calcium fluorescence, Fluo-4, FDSS)
# Type: cell-based
# Conditions: 3 uM test compound; CHO cells expressing human OX2 receptor; DMSO = 0%, 10 nM orexin A (human) = 100%
# Description: In order to obtain cell clones that stably express human orexin type 2 receptor, human orexin type 2 (residues 1-444, NCBI Reference Sequence: AK314279) was constructed in a pcDNA3.1 (+) vector (Invitrogen) to express in mammalian cells. This plasmid DNA was transfected into CHO-K1 cells by electroporation, and stable clones were obtained by limiting dilution using resistance to G418 as a selection marker.
# CHO cells in which human OX2 receptor was forcibly expressed were seeded at 10,000 cells/well into a 384-well black transparent bottom plate (BD falcon), and were incubated at 37° C., 5% CO2 for 1 day after incubation at room temperature for 30 minutes. After removing the cell plate medium, assay buffer containing calcium indicator A (HBSS (Thermo Fisher Scientific), 20 mM HEPES (Thermo Fisher Scientific), 0.1% BSA (Sigma-Aldrich), 2.5 μg/mL Fluo-4 AM (Dojin Kagaku), 0.08% Pluronic F127 (Dojin Kagaku), 1.25 mM probenecid (Dojin Kagaku)) was added at 30 μL/well. After incubation in a 5% CO2 incubator at 37° C. for 30 minutes, it was incubated at room temperature for another 30 minutes. Add 10 μL/well of the test compound diluted with assay buffer B (HBSS, 20 mM HEPES, 0.1% BSA), and use FDSS μCELL (Hamamatsu Photonics) to measure the fluorescence value every 1 second for 1 minute, and then every 2 seconds for 1 minute. It was measured for 1 minute and 40 seconds. The amount of fluorescence value when DMSO is added instead of the test compound is defined as 0%, and the amount of fluorescence value when orexin A (human) (Peptide Institute) with a final concentration of 10 nM is added is defined as 100%. The activity (%) of the test compound was calculated.
smiles,measurement,value
"CCS(=O)(=O)NC1Cn2cc(-c3noc4cccc(-c5c(F)cccc5F)c34)c(=O)n2C1 (single isomer, unassigned) [Example 339, N-{(2R*)-6-[4-(2,6-difluorophenyl)-1,2-benzoxazol-3-yl]-5-oxo-2,3-dihydro-1H,5H-pyrazolo[1,2-a]pyrazol-2-yl}ethanesulfonamide]","OX2R agonist activity (3 uM, %)",96%
"Cc1c(-c2noc3cccc(-c4c(F)cccc4F)c23)c(=O)n2n1CC(NS(C)(=O)=O)C2 (single isomer, unassigned) [Example 340, N-{(2R*)-6-[4-(2,6-difluorophenyl)-1,2-benzoxazol-3-yl]-7-methyl-5-oxo-2,3-dihydro-1H,5H-pyrazolo[1,2-a]pyrazol-2-yl}methanesulfonamide]","OX2R agonist activity (3 uM, %)",92%
"CCS(=O)(=O)NC1CN2C(=O)N(c3noc4cccc(-c5c(F)cccc5F)c34)C[C@@H]2C1C (stereo in doubt) [Example 158, N-{(6R*,7R*,7aS)-2-[4-(2,6-difluorophenyl)-1,2-benzoxazol-3-yl]-7-methyl-3-oxohexahydro-1H-pyrrolo[1,2-c]imidazol-6-yl}ethanesulfonamide]","OX2R agonist activity (3 uM, %)",103%
"CCS(=O)(=O)NC1CN2C(=O)N(c3noc4cccc(-c5c(F)cccc5F)c34)C[C@@H]2C1C (stereo in doubt) [Example 183, N-{(6R*,7S*,7aS)-2-[4-(2,6-difluorophenyl)-1,2-benzoxazol-3-yl]-7-methyl-3-oxohexahydro-1H-pyrrolo[1,2-c]imidazol-6-yl}ethanesulfonamide]","OX2R agonist activity (3 uM, %)",101%
"CCS(=O)(=O)N[C@H]1Cc2cn(-c3cnn4cccc(-c5c(F)cccc5F)c34)c(=O)n2C1 [Example 2, N-{(6S)-2-[4-(2,6-difluorophenyl)pyrazolo[1,5-a]pyridin-3-yl]-3-oxo-2,5,6,7-tetrahydro-3H-pyrrolo[1,2-c]imidazol-6-yl}ethanesulfonamide]","OX2R agonist activity (3 uM, %)",108%
"CCS(=O)(=O)N[C@@H]1CN2C(=O)N(c3noc4cccc(-c5c(F)cccc5F)c34)C[C@@H]2C1(C)C [Example 6, N-{(6S,7aS)-2-[4-(2,6-difluorophenyl)-1,2-benzoxazol-3-yl]-7,7-dimethyl-3-oxohexahydro-1H-pyrrolo[1,2-c]imidazol-6-yl}ethanesulfonamide]","OX2R agonist activity (3 uM, %)",96%
"CCS(=O)(=O)N[C@@H]1CN2C(=O)N(c3noc4ccc(F)c(-c5c(F)cccc5F)c34)C[C@@H]2C1(F)F [Example 7, N-{(6R,7aR)-2-[4-(2,6-difluorophenyl)-5-fluoro-1,2-benzoxazol-3-yl]-7,7-difluoro-3-oxohexahydro-1H-pyrrolo[1,2-c]imidazol-6-yl}ethanesulfonamide]","OX2R agonist activity (3 uM, %)",105%
"CCS(=O)(=O)N[C@@H]1CN2C(=O)N(c3noc4cc(Cl)cc(-c5c(F)cc(F)cc5F)c34)C[C@@H]2C1(F)F [Example 9, N-{(6R,7aR)-2-[6-chloro-4-(2,4,6-trifluorophenyl)-1,2-benzoxazol-3-yl]-7,7-difluoro-3-oxohexahydro-1H-pyrrolo[1,2-c]imidazol-6-yl}ethanesulfonamide]","OX2R agonist activity (3 uM, %)",92%
"CCS(=O)(=O)N[C@H]1Cc2c(C)n(-c3noc4cccc(-c5c(F)cccc5F)c34)c(=O)n2C1 [Example 12, N-{(6S)-2-[4-(2,6-difluorophenyl)-1,2-benzoxazol-3-yl]-1-methyl-3-oxo-2,5,6,7-tetrahydro-3H-pyrrolo[1,2-c]imidazol-6-yl}ethanesulfonamide]","OX2R agonist activity (3 uM, %)",105%
"CNS(=O)(=O)N[C@@H]1CN2C(=O)N(c3noc4cccc(-c5c(F)cccc5F)c34)C[C@@H]2C1(F)F [Example 17, N-{(6R,7aR)-2-[4-(2,6-difluorophenyl)-1,2-benzoxazol-3-yl]-7,7-difluoro-3-oxohexahydro-1H-pyrrolo[1,2-c]imidazol-6-yl}-N′-methylsulfuric diamide]","OX2R agonist activity (3 uM, %)",104%
"COCS(=O)(=O)N[C@H]1C[C@H]2CN(c3noc4cccc(-c5c(F)cccc5F)c34)C(=O)N2C1 [Example 20, N-{(6S,7aS)-2-[4-(2,6-difluorophenyl)-1,2-benzoxazol-3-yl]-3-oxohexahydro-1H-pyrrolo[1,2-c]imidazol-6-yl}-1-methoxymethanesulfonamide]","OX2R agonist activity (3 uM, %)",97%
"CCS(=O)(=O)N[C@H]1C[C@H]2CN(c3noc4cccc(-c5c(F)ccc(F)c5F)c34)C(=O)N2C1 [Example 21, N-{(6S,7aS)-3-oxo-2-[4-(2,3,6-trifluorophenyl)-1,2-benzoxazol-3-yl]hexahydro-1H-pyrrolo[1,2-c]imidazol-6-yl}ethanesulfonamide]","OX2R agonist activity (3 uM, %)",81%
"CS(=O)(=O)N[C@@H]1CN2C(=O)N(c3noc4cc(Cl)cc(-c5c(F)cc(F)cc5F)c34)C[C@@H]2C1(F)F [Example 25, N-{(6R,7aR)-2-[6-chloro-4-(2,4,6-trifluorophenyl)-1,2-benzoxazol-3-yl]-7,7-difluoro-3-oxohexahydro-1H-pyrrolo[1,2-c]imidazol-6-yl}methanesulfonamide]","OX2R agonist activity (3 uM, %)",96%
"CS(=O)(=O)N[C@H]1Cc2cn(-c3noc4cccc(-c5c(F)cccc5F)c34)c(=O)n2C1 [Example 26, N-{(6S)-2-[4-(2,6-difluorophenyl)-1,2-benzoxazol-3-yl]-3-oxo-2,5,6,7-tetrahydro-3H-pyrrolo[1,2-c]imidazol-6-yl}methanesulfonamide]","OX2R agonist activity (3 uM, %)",97%
"CN(C)S(=O)(=O)N[C@H]1C[C@H]2CN(c3noc4cccc(-c5c(F)cccc5F)c34)C(=O)N2C1 [Example 28, N′-{(6S,7aS)-2-[4-(2,6-difluorophenyl)-1,2-benzoxazol-3-yl]-3-oxohexahydro-1H-pyrrolo[1,2-c]imidazol-6-yl}-N,N-dimethylsulfuric diamide]","OX2R agonist activity (3 uM, %)",106%
"O=C1N(c2noc3cccc(-c4c(F)cccc4F)c23)C[C@@H]2C[C@H](NS(=O)(=O)CF)CN12 [Example 29, N-{(6S,7aS)-2-[4-(2,6-difluorophenyl)-1,2-benzoxazol-3-yl]-3-oxohexahydro-1H-pyrrolo[1,2-c]imidazol-6-yl}-1-fluoromethanesulfonamide]","OX2R agonist activity (3 uM, %)",101%
"CCS(=O)(=O)N[C@H]1C[C@H]2CN(c3noc4c(C)ccc(-c5c(F)cccc5F)c34)C(=O)N2C1 [Example 30, N-{(6S,7aS)-2-[4-(2,6-difluorophenyl)-7-methyl-1,2-benzoxazol-3-yl]-3-oxohexahydro-1H-pyrrolo[1,2-c]imidazol-6-yl}ethanesulfonamide]","OX2R agonist activity (3 uM, %)",94%
"CCS(=O)(=O)N[C@H]1C[C@H]2CN(c3noc4cccc(-c5c(F)cccc5C(F)(F)F)c34)C(=O)N2C1 [Example 32, N-[ (6S,7aS)-2-{4-[2-fluoro-6-(trifluoromethyl)phenyl]-1,2-benzoxazol-3-yl}-3-oxohexahydro-1H-pyrrolo[1,2-c]imidazol-6-yl] ethanesulfonamide]","OX2R agonist activity (3 uM, %)",94%
"CCS(=O)(=O)N[C@@H]1CN2C(=O)N(c3noc4cccc(-c5c(F)cccc5F)c34)C[C@@H]2C1(F)F [Example 33, N-{(6R,7aR)-2-[4-(2,6-Difluorophenyl)-1,2-benzoxazol-3-yl]-7,7-difluoro-3-oxohexahydro-1H-pyrrolo[1,2-c]imidazol-6-yl}ethanesulfonamide]","OX2R agonist activity (3 uM, %)",108%
"CS(=O)(=O)N[C@@H]1CN2C(=O)N(c3noc4cccc(-c5c(F)cccc5F)c34)C[C@@H]2C1(F)F [Example 34, N-{(6R,7aR)-2-[4-(2,6-Difluorophenyl)-1,2-benzoxazol-3-yl]-7,7-difluoro-3-oxohexahydro-1H-pyrrolo[1,2-c]imidazol-6-yl}methanesulfonamide]","OX2R agonist activity (3 uM, %)",106%
"CCS(=O)(=O)N[C@H]1Cc2cn(-c3cnc4cccc(-c5c(F)cccc5F)n34)c(=O)n2C1 [Example 37, N-{(6S)-2-[5-(2,6-difluorophenyl)imidazo[1,2-a]pyridin-3-yl]-3-oxo-2,5,6,7-tetrahydro-3H-pyrrolo[1,2-c]imidazol-6-yl}ethanesulfonamide]","OX2R agonist activity (3 uM, %)",101%
